We go through six compounds from US6693137B1, “Sulphonamide derivatives” (Eli Lilly and Company, priority 1998, dated 2004).

T1 sequence (P48058 21-902): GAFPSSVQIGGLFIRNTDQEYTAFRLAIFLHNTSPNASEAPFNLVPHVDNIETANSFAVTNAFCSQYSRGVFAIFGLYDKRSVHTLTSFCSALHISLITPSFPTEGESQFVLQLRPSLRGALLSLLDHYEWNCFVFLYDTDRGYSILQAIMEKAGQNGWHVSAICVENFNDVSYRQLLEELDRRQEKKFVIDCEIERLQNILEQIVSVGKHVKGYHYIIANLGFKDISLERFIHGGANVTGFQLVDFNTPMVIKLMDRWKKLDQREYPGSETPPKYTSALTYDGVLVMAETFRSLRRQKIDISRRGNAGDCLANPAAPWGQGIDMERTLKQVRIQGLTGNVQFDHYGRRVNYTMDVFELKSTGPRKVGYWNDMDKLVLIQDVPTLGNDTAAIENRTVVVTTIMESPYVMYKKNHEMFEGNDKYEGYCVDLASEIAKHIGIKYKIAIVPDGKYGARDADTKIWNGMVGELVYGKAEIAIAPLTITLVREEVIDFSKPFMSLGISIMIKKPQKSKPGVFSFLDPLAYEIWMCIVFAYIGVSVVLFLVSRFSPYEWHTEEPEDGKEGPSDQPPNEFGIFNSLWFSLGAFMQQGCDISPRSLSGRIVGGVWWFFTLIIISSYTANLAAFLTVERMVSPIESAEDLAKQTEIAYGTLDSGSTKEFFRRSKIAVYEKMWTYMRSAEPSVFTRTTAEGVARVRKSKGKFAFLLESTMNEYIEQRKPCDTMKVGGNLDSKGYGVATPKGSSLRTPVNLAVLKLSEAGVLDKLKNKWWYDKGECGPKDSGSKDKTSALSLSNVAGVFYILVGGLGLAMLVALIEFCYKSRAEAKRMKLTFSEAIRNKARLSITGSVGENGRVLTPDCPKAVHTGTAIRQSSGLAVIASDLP

Test system in one data set: not given
Assay: not given
Regarding `CC(CNS(=O)(=O)C(C)C)c1ccc(NC(=O)CN(C)C)cc1.O=C(O)/C=C\C(=O)O` (stereo not drawn), the melting point (usually the temperature of the solid-liquid transition) was 120 to 122 °C.
The same measure, in the same setting: the figure for `CC(CNS(=O)(=O)C(C)C)c1ccc(NC(=O)CN2CCCCC2)cc1` (stereo not drawn) is 139 to 141 °C; for `CCOCC(=O)Nc1ccc(C(C)CNS(=O)(=O)C(C)C)cc1` (stereo not drawn) it is 113 to 116 °C; for `CC(CNS(=O)(=O)C(C)C)c1ccc(NC(=O)COc2ccccn2)cc1` (stereo not drawn) it is 176 to 178 °C.
Still for that read-out and setting: with `CC(CNS(=O)(=O)C(C)C)c1ccc(-c2ccc(OCCN3CCCC3)cc2)cc1.Cl` (stereo not drawn) the figure was 172 to 173 °C.

A further data set addresses T1, human GluR4B receptor (Homo sapiens, UniProt P48058).
T1 construct: expressed in transfected cells
As to the kind of experiment: potentiation of agonist-induced excitability of human GluR4B receptor expressed in HEK 293 cells. Format: cell-based. From the text: The ability of compounds of formula I to potentiate glutamate receptor-mediated response may be determined using fluorescent calcium indicator dyes (Molecular Probes, Eugene, Oreg., Fluo-3) and by measuring glutamate-evoked efflux of calcium into GluR^4 transfected HEK293 cells, as described in more detail below.
In one test, 96 well plates containing confluent monolayers of HEK cells stably expressing human GluR4B (obtained as described in European Patent Application Publication Number EP-A1-583917) are prepared. The tissue culture medium in the wells is then discarded, and the wells are each washed once with 200 μl of buffer (glucose, 10 mM, sodium chloride, 138 mM, magnesium chloride, 1 mM, potassium chloride, 5 mM, calcium chloride, 5 mM, N-[2-hydroxyethyl]piperazine-N-[2-ethanesulfonic acid], 10 mM, to pH 7.1 to 7.3). […]
Each test is then performed as follows. […] A second fluorescent reading is taken after 5 minutes incubation. 15 μl of 400 μM glutamate solution is then added to each well (final glutamate concentration 100 μM), and a third reading is taken. The activities of test compounds and cyclothiazide solutions are determined by subtracting the second from the third reading (fluorescence due to addition of glutamate in the presence or absence of test compound or cyclothiazide) and are expressed relative to enhance fluorescence produced by 100 μM cyclothiazide.
Take `NS(=O)(=O)c1cc2c(cc1Cl)NC(C1CC3C=CC1C3)NS2(=O)=O` (stereo not drawn) [cyclothiazide]: the “potentiation of agonist-induced excitability” value is “potentiate agonist-induced excitability”.
